Two compounds from US10322107B2, “N-methyl-N-(1-phenyl-2-(1-pyrrolidinyl)ethyl)-2-aminophenylacetamide derivatives agonists for the kappa opioid receptor” (Nektar Therapeutics, priority 2014, dated 2019) can be followed below.

For assay [1], the target named is T1, KOR (kappa opioid receptor) (Homo sapiens, UniProt P41145).
T1 construct: expressed in transfected cells
Nature of the assay: Inhibition of cAMP accumulation in forskolin-stimulated CHO-K1 cells stably expressing KOR. It counts as cell-based.

The target in assay [2] is recombinant human kappa (KOR) opioid receptor (Homo sapiens, UniProt P41145). Nature of the assay: Competitive radioligand binding at KOR ([3H]diprenorphine), CHO-K1 membranes.
For assay [3], the target named is T2, recombinant human mu (MOR) opioid receptor (Homo sapiens, UniProt P35372).
T2 construct: expressed in transfected cells; host or cells: CHO-K1 cells (membranes)
Nature of the assay: Competitive radioligand binding at MOR ([3H]naloxone), single concentration, CHO-K1 membranes. The settings on record: 10 μM test compound; percent inhibition of specific [3H]naloxone (4 nM) binding; read-out: Mu Opioid Receptor Mu Receptor Inhibition % inhib @ 10 uM. The procedure: The binding affinities of certain compounds of the present invention were evaluated using radioligand binding assays in membranes prepared from CHO-K1 cells expressing recombinant human kappa (KOR) or mu (MOR) opioid receptors.
Competition binding experiments were conducted by incubating membrane protein to equilibrium in triplicate in the presence of a fixed concentration of radioligand and increasing concentrations of test compound for evaluation of binding to KOR or single concentration (10 μM) of test compound for evaluation of binding to MOR in 101 μL final volume. The radioligands used were specific for each receptor type, and the assay conditions are described in Table 1. Following incubations, the membranes were rapidly filtered through GF/B filter plate (presoaked with 0.5% polyethyleneimine), washed five times with cold 50 mM Tris-HCl, pH 7.5, and the bound radioactivity was then measured by liquid scintillation counting. Non-specific binding was measured in the presence of excess ligand; this value was subtracted from the total binding to yield the specific binding at each test concentration.
Ki (affinity of test compound) was obtained using the Cheng Prusoff correction using experimental Kd (affinity of radioligand) values that were previously determined under these assay conditions. For MOR binding, compounds were tested at one concentration, 10 μM, to evaluate its ability to inhibit specific radioligand binding. The values are expressed as percent inhibition of specific binding and greater than 50% inhibition of binding was considered to be significant.

One may read the EC50 as the concentration that produces a half-maximal response. The IC50 is the concentration that gives 50% inhibition. By Ki is commonly meant a measure of affinity in units of concentration, obtained from inhibition or displacement. In general, inhibition refers to the relative decrease from the control value, in per cent.

Read-outs that look alike come from different tables or passages of the source.

Consider `CN([C@H](CN1CC[C@H](O)C1)c1ccc(OCCO)cc1)S(=O)(=O)Cc1ccc(C(F)(F)F)cc1` [Example 23, N-{(18)-1-[4-(2-Hydroxyethoxy)phenyl]-2-[(38)-3-hydroxypyrrolidin-1-yl]ethyl}-N-methyl-1-[4-(trifluoromethyl)phenyl]methanesulfonamide], for which the concentration giving a half-maximal response (EC50) in assay [1] turned out to be 53.6 nM. Moreover, in assay [2], the concentration for half-maximal inhibition (IC50) came out at 1080 nM and the inhibitory constant (Ki) came out at 141 nM. Also, the inhibition at 10 µM in assay [3] was -2%.

On to `CN(C(=O)Cc1ccc(Cl)c(Cl)c1)[C@H](CN1CC(O)C1)c1ccc(OCCO)cc1` [Example 24, (S)-2-(3,4-dichlorophenyl)-N-(2-(3-hydroxyazetidin-1-yl)-1-(4-(2-hydroxyethoxy)phenyl)ethyl)-N-methylacetamide], for which the concentration giving a half-maximal response (EC50) in assay [1] turned out to be 0.78 nM. The Ki in assay [2] (Cheng Prusoff correction using experimental Kd of radioligand, read-out: Kappa Opioid Receptor Ki) turned out to be 2.71 nM. The half-inhibitory concentration (IC50) in assay [2] (read-out: Kappa Opioid Receptor IC50) was 20.8 nM. Besides, the inhibition at 10 µM in assay [3] came out at 40.1%.
